In patent US4416884A, “Piperazinylbenzoheterocyclic compounds” (Otsuka Pharmaceutical Co., Ltd., priority 1978, dated 1983):
Values after ≈ are worked out from the molar mass of the structure shown. Counter-ions that a name gives are not always drawn. Like-named read-outs stand apart in the source and are kept apart here.

How the values were obtained:
Experiment in all cases: antimicrobial activity, serial dilution method on agar plate
Type in all cases: cell-based
[1] = test system: Serattia marcescens IFO 12648
Description: (§1) The antimicrobial activity of the following test compounds on various test organisms listed below was determined by the serial dilution method on agar plate (Heart Infusion agar produced by Difco Co.) (see CHEMOTHERAPY 22, pp. 1126-1128 (1974)), and the minimum inhibitory concentrations (mcg/ml) obtained are shown in Table 1 below.
(§2) A sample of each test organism was prepared so that the population of the organism was 1×10^8 cells/ml (O.D. 660 mμ=0.07 to 0.16) and 1×10^6 cells/ml (which was obtained by diluting the above 1×10^8 cells/ml preparation).

[2] = test system: Pseudomonas aeruginosa ATCC 10145
Description: as §1, §2

[3] = test system: Salmonella typhi 0-901 (NCTC 8393); conditions: Salmonella enterica
Description: as §1, §2

[4] = test system: Klebsiella pneumoniae
Description: as §1, §2

[5] = test system: Pseudomonas aeruginosa E-2
Description: as §1, §2

[6] = test system: Shigella Sonnei EW 33; conditions: inoculum 1 × 10^8 cells/ml, read-out: Minimum Inhibitory Concentration
Description: as §1, §2

[7] = test system: Proteus rettgeri NIH 96; conditions: Providencia rettgeri
Description: as §1, §2

[8] = test system: Escherichia Coli NIHJ JC-2 (IFO 12734); conditions: Escherichia coli, read-out: Minimum Inhibitory Concentration
Description: as §1, §2

[9] = test system: Staphylococcus aureus FDA 209 P
Description: as §1, §2

[10] = test system: Pseudomonas aeruginosa NCTC 10490
Description: as §1, §2

[11] = inoculum 1 × 10^8 cells/ml, read-out: Minimum Inhibitory Concentration
[12] = ATCC10145, inoculum 1 × 10^8 cells/ml, read-out: Minimum Inhibitory Concentration
[13] = read-out: Minimum Inhibitory Concentration, inoculum 1 × 10^8 cells/ml
[14] = E2, inoculum 1 × 10^8 cells/ml, read-out: Minimum Inhibitory Concentration
[15] = NIH96, inoculum 1 × 10^8 cells/ml, read-out: Minimum Inhibitory Concentration
[16] = FDA209, inoculum 1 × 10^8 cells/ml, read-out: Minimum Inhibitory Concentration
[17] = NCTC10490, inoculum 1 × 10^8 cells/ml, read-out: Minimum Inhibitory Concentration
[18] = ATCC10145, read-out: Minimum Inhibitory Concentration, inoculum 1 × 10^8 cells/ml
[19] = E2, read-out: Minimum Inhibitory Concentration, inoculum 1 × 10^8 cells/ml
[20] = NIH96, read-out: Minimum Inhibitory Concentration, inoculum 1 × 10^8 cells/ml
[21] = FDA209, read-out: Minimum Inhibitory Concentration, inoculum 1 × 10^8 cells/ml
[22] = NCTC10490, read-out: Minimum Inhibitory Concentration, inoculum 1 × 10^8 cells/ml

| Compound | MIC [1, 11] | MIC [2, 12] | MIC [3, 13] | MIC [4, 11] | MIC [5, 14] | MIC [6] | MIC [7, 15] | MIC ([8]; inoculum 1 × 10^8 cells/ml) | MIC [9, 16] | MIC [10, 17] | MIC [1, 13] | MIC [2, 18] | MIC [3, 11] | MIC [4, 13] | MIC [5, 19] | MIC [7, 20] | MIC [8] | MIC [9, 21] | MIC [10, 22] |
| --- | --- | --- | --- | --- | --- | --- | --- | --- | --- | --- | --- | --- | --- | --- | --- | --- | --- | --- | --- |
| CN1CCN(c2ccc3c(=O)c(C(=O)O)cn4c3c2CCC4)CC1 [Compound L, 8-(4-Methyl-1-piperazinyl)-6,7-dihydro-1-oxo-1H,5H--benzo[ij]quinolizine-2-carboxylic acid] | 6.3 µg/mL (≈ 19.2 µM) | 50 µg/mL (≈ 153 µM) | 3.1 µg/mL (≈ 9.47 µM) | 6.3 µg/mL (≈ 19.2 µM) | 50 µg/mL (≈ 153 µM) | 3.1 µg/mL (≈ 9.47 µM) | 3.1 µg/mL (≈ 9.47 µM) | 1.6 µg/mL (≈ 4.89 µM) | 6.3 µg/mL (≈ 19.2 µM) | 50 µg/mL (≈ 153 µM) |  |  |  |  |  |  |  |  |  |
| Cc1ccc(S(=O)(=O)N2CCN(c3ccc4c(=O)c(C(=O)O)cn5c4c3CCC5)CC2)cc1 [Compound S, 8-(4-p-Toluenesulfonyl-1-piperazinyl)-6,7-dihydro-1-oxo-1H,5H--benzo[ij]quinolizine-2-carboxylic acid] | 6.3 µg/mL (≈ 13.5 µM) | 25 µg/mL (≈ 53.5 µM) | 1.6 µg/mL (≈ 3.42 µM) | 3.1 µg/mL (≈ 6.63 µM) | 50 µg/mL (≈ 107 µM) | 3.1 µg/mL (≈ 6.63 µM) | 3.1 µg/mL (≈ 6.63 µM) | 1.6 µg/mL (≈ 3.42 µM) | 6.3 µg/mL (≈ 13.5 µM) | 12.5 µg/mL (≈ 26.7 µM) |  |  |  |  |  |  |  |  |  |
| O=C(O)c1cn2c3c(c(N4CCNCC4)ccc3c1=O)CC2 [Compound Q, 9-(1-Piperazinyl)-6-oxo-1,2-dihydro-6H--pyrrolo[3,2,1-ij]quinoline-5-carboxylic acid hydrochloride] |  |  |  |  |  | 3.1 µg/mL |  |  |  |  | 6.3 µg/mL | 50 µg/mL | 6.3 µg/mL | 12.5 µg/mL | 50 µg/mL | 25 µg/mL | 25 µg/mL | 100 µg/mL | 25 µg/mL |
| O=C(O)c1cn2c3c(c(N4CCNCC4)c(Cl)cc3c1=O)CCC2 [Compound P, 9-Chloro-8-(1-piperazinyl)-6,7-dihydro-1-oxo-1H,5H--benzo[ij]quinolizine-2-carboxylic acid hydrochloride] |  |  |  |  |  | 1.6 µg/mL |  |  |  |  | 1.6 µg/mL | 6.3 µg/mL | 0.8 µg/mL | 0.8 µg/mL | 6.3 µg/mL | 0.4 µg/mL | 1.6 µg/mL | 6.3 µg/mL | 6.3 µg/mL |
| CS(=O)(=O)N1CCN(c2ccc3c(=O)c(C(=O)O)cn4c3c2CCC4)CC1 [Compound O, 8-(4-Methanesulfonyl-1-piperazinyl)-6,7-dihydro-1-oxo-1H,5H--benzo[ij]quinolizine-2-carboxylic acid] | 12.5 µg/mL (≈ 31.9 µM) | 100 µg/mL (≈ 255 µM) | 1.6 µg/mL (≈ 4.09 µM) | 6.3 µg/mL (≈ 16.1 µM) | 100 µg/mL (≈ 255 µM) | 6.3 µg/mL (≈ 16.1 µM) | 6.3 µg/mL (≈ 16.1 µM) | 6.3 µg/mL (≈ 16.1 µM) | 3.1 µg/mL (≈ 7.92 µM) | 25 µg/mL (≈ 63.9 µM) |  |  |  |  |  |  |  |  |  |
| O=CN1CCN(c2ccc3c(=O)c(C(=O)O)cn4c3c2CCC4)CC1 [Compound M, 8-(4-Formyl-1-piperazinyl)-6,7-dihydro-1-oxo-1H,5H--benzo[ij]quinolizine-2-carboxylic acid] | 3.1 µg/mL (≈ 9.08 µM) | 25 µg/mL (≈ 73.2 µM) | 0.8 µg/mL (≈ 2.34 µM) | 3.1 µg/mL (≈ 9.08 µM) | 25 µg/mL (≈ 73.2 µM) | 1.6 µg/mL (≈ 4.69 µM) | 1.6 µg/mL (≈ 4.69 µM) | 1.6 µg/mL (≈ 4.69 µM) | 3.1 µg/mL (≈ 9.08 µM) | 12.5 µg/mL (≈ 36.6 µM) |  |  |  |  |  |  |  |  |  |
| O=C(O)c1cn2c3c(c(N4CCN(Cc5ccccc5)CC4)ccc3c1=O)CCC2 [Compound R, 8-(4-Benzyl-1-piperazinyl)-6,7-dihydro-1-oxo-1H,5H--benzo[ij]quinolizine-2-carboxylic acid] | 3.1 µg/mL (≈ 7.68 µM) | 25 µg/mL (≈ 62 µM) | 1.6 µg/mL (≈ 3.97 µM) | 3.1 µg/mL (≈ 7.68 µM) | 25 µg/mL (≈ 62 µM) | 1.6 µg/mL (≈ 3.97 µM) | 1.6 µg/mL (≈ 3.97 µM) | 1.6 µg/mL (≈ 3.97 µM) | 12.5 µg/mL (≈ 31 µM) | 12.5 µg/mL (≈ 31 µM) |  |  |  |  |  |  |  |  |  |
| O=C(O)c1cn2c3c(c(N4CCN(C(=O)c5ccccc5)CC4)ccc3c1=O)CCC2 [Compound N, 8-(4-Benzoyl-1-piperazinyl)-6,7-dihydro-1-oxo-1H,5H--benzo[ij]quinolizine-2-carboxylic acid] | 12.5 µg/mL (≈ 29.9 µM) | 50 µg/mL (≈ 120 µM) | 1.6 µg/mL (≈ 3.83 µM) | 6.3 µg/mL (≈ 15.1 µM) | 100 µg/mL (≈ 240 µM) | 3.1 µg/mL (≈ 7.43 µM) | 6.3 µg/mL (≈ 15.1 µM) | 6.3 µg/mL (≈ 15.1 µM) | 3.1 µg/mL (≈ 7.43 µM) | 25 µg/mL (≈ 59.9 µM) |  |  |  |  |  |  |  |  |  |
